Measured values reported in PubChem BioAssay (NCI).
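Growth conditions: 96-well plates. Treatment: test compound, 48 hours, 5 concentrations. Analysis: linear interpolation between bracketing concentrations; unreached endpoints set to highest concentration. TGI marks complete inhibition of growth.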

Experiments:
Experiment in all cases: NCI-60 cell line screen, 48 h
786-0 renal = test system: 786-0 renal
A549 NSCLC = test system: A549 NSCLC
ACHN renal = test system: ACHN renal
CAKI-1 renal = test system: CAKI-1 renal
CCRF-CEM leukemia = test system: CCRF-CEM leukemia
COLO 205 colon = test system: COLO 205 colon
DLD-1 colon = test system: DLD-1 colon
DMS 114 small cell lung = test system: DMS 114 small cell lung
DMS 273 small cell lung = test system: DMS 273 small cell lung
EKVX NSCLC = test system: EKVX NSCLC
HCC-2998 colon = test system: HCC-2998 colon
HCT-116 colon = test system: HCT-116 colon
HCT-15 colon = test system: HCT-15 colon
HL-60(TB) leukemia = test system: HL-60(TB) leukemia
HOP-18 NSCLC = test system: HOP-18 NSCLC
HOP-62 NSCLC = test system: HOP-62 NSCLC
HOP-92 NSCLC = test system: HOP-92 NSCLC
HT29 colon = test system: HT29 colon
IGROV1 ovarian = test system: IGROV1 ovarian
K-562 leukemia = test system: K-562 leukemia
KM12 colon = test system: KM12 colon
KM20L2 colon = test system: KM20L2 colon
LOX IMVI melanoma = test system: LOX IMVI melanoma
LXFL 529 NSCLC = test system: LXFL 529 NSCLC
M14 melanoma = test system: M14 melanoma
M19-MEL melanoma = test system: M19-MEL melanoma
MALME-3M melanoma = test system: MALME-3M melanoma
MOLT-4 leukemia = test system: MOLT-4 leukemia
NCI-H226 lung = test system: NCI-H226 lung
NCI-H23 lung = test system: NCI-H23 lung
NCI-H460 lung = test system: NCI-H460 lung
NCI-H522 lung = test system: NCI-H522 lung
OVCAR-3 ovarian = test system: OVCAR-3 ovarian
OVCAR-4 ovarian = test system: OVCAR-4 ovarian
OVCAR-5 ovarian = test system: OVCAR-5 ovarian
OVCAR-8 ovarian = test system: OVCAR-8 ovarian
RPMI-8226 leukemia = test system: RPMI-8226 leukemia
RXF 393 renal = test system: RXF 393 renal
RXF-631 renal = test system: RXF-631 renal
SF-268 CNS = test system: SF-268 CNS
SF-295 CNS = test system: SF-295 CNS
SF-539 CNS = test system: SF-539 CNS
SK-MEL-2 melanoma = test system: SK-MEL-2 melanoma
SK-MEL-28 melanoma = test system: SK-MEL-28 melanoma
SK-MEL-5 melanoma = test system: SK-MEL-5 melanoma
SK-OV-3 ovarian = test system: SK-OV-3 ovarian
SN12C renal = test system: SN12C renal
SNB-19 CNS = test system: SNB-19 CNS
SNB-75 CNS = test system: SNB-75 CNS
SNB-78 CNS = test system: SNB-78 CNS
SR leukemia = test system: SR leukemia
SW-620 colon = test system: SW-620 colon
TK-10 renal = test system: TK-10 renal
U251 CNS = test system: U251 CNS
UACC-257 melanoma = test system: UACC-257 melanoma
UACC-62 melanoma = test system: UACC-62 melanoma
XF 498 CNS = test system: XF 498 CNS
UO-31 renal = test system: UO-31 renal

## CC(=O)OC1COC(N2C(=O)C(=O)c3cc(Br)c([N+](=O)[O-])cc32)C(OC(C)=O)C1OC(C)=O (centres undefined)
786-0 renal
  TGI: > 100 µM
A549 NSCLC
  TGI: > 100 µM
ACHN renal
  TGI: > 100 µM
CAKI-1 renal
  TGI: > 100 µM
CCRF-CEM leukemia
  TGI: 89.2 µM
COLO 205 colon
  TGI: > 100 µM
DLD-1 colon
  TGI: > 100 µM
DMS 114 small cell lung
  TGI: 65.8 µM
DMS 273 small cell lung
  TGI: > 100 µM
EKVX NSCLC
  TGI: > 100 µM
HCC-2998 colon
  TGI: > 100 µM
HCT-116 colon
  TGI: > 100 µM
HCT-15 colon
  TGI: > 100 µM
HL-60(TB) leukemia
  TGI: > 100 µM
HOP-18 NSCLC
  TGI: > 100 µM
HOP-62 NSCLC
  TGI: > 100 µM
HOP-92 NSCLC
  TGI: 93.3 µM
HT29 colon
  TGI: > 100 µM
IGROV1 ovarian
  TGI: > 100 µM
K-562 leukemia
  TGI: 72.4 µM
KM12 colon
  TGI: > 100 µM
KM20L2 colon
  TGI: > 100 µM
LOX IMVI melanoma
  TGI: 99 µM
LXFL 529 NSCLC
  TGI: > 100 µM
M14 melanoma
  TGI: > 100 µM
M19-MEL melanoma
  TGI: 62.5 µM
MALME-3M melanoma
  TGI: > 100 µM
MOLT-4 leukemia
  TGI: 88.5 µM
NCI-H226 lung
  TGI: > 100 µM
NCI-H23 lung
  TGI: > 100 µM
NCI-H460 lung
  TGI: > 100 µM
NCI-H522 lung
  TGI: > 100 µM
OVCAR-3 ovarian
  TGI: > 100 µM
OVCAR-4 ovarian
  TGI: > 100 µM
OVCAR-5 ovarian
  TGI: > 100 µM
OVCAR-8 ovarian
  TGI: > 100 µM
RPMI-8226 leukemia
  TGI: > 100 µM
RXF 393 renal
  TGI: 82.3 µM
RXF-631 renal
  TGI: > 100 µM
SF-268 CNS
  TGI: > 100 µM
SF-295 CNS
  TGI: > 100 µM
SF-539 CNS
  TGI: > 100 µM
SK-MEL-2 melanoma
  TGI: > 100 µM
SK-MEL-28 melanoma
  TGI: > 100 µM
SK-MEL-5 melanoma
  TGI: > 100 µM
SK-OV-3 ovarian
  TGI: > 100 µM
SN12C renal
  TGI: > 100 µM
SNB-19 CNS
  TGI: > 100 µM
SNB-75 CNS
  TGI: 81.4 µM
SNB-78 CNS
  TGI: > 100 µM
SR leukemia
  TGI: > 100 µM
SW-620 colon
  TGI: > 100 µM
TK-10 renal
  TGI: > 100 µM
U251 CNS
  TGI: > 100 µM
UACC-257 melanoma
  TGI: > 100 µM
UACC-62 melanoma
  TGI: > 100 µM
XF 498 CNS
  TGI: > 100 µM

## CC(=O)OC(C)(C)C1CCC(C)(C(O)COc2ccc(CCNC(=O)c3ccccc3)cc2)O1 (centres undefined)
786-0 renal
  TGI: > 100 µM
A549 NSCLC
  TGI: > 100 µM
ACHN renal
  TGI: > 100 µM
CAKI-1 renal
  TGI: > 100 µM
CCRF-CEM leukemia
  TGI: > 100 µM
COLO 205 colon
  TGI: > 100 µM
DLD-1 colon
  TGI: > 100 µM
DMS 114 small cell lung
  TGI: 62.2 µM
DMS 273 small cell lung
  TGI: > 100 µM
HCT-116 colon
  TGI: > 100 µM
HCT-15 colon
  TGI: > 100 µM
HL-60(TB) leukemia
  TGI: 67.8 µM
HOP-18 NSCLC
  TGI: > 100 µM
HOP-62 NSCLC
  TGI: > 100 µM
HOP-92 NSCLC
  TGI: > 100 µM
HT29 colon
  TGI: > 100 µM
IGROV1 ovarian
  TGI: > 100 µM
KM12 colon
  TGI: > 100 µM
KM20L2 colon
  TGI: > 100 µM
LOX IMVI melanoma
  TGI: > 100 µM
LXFL 529 NSCLC
  TGI: > 100 µM
M14 melanoma
  TGI: > 100 µM
M19-MEL melanoma
  TGI: > 100 µM
MALME-3M melanoma
  TGI: > 100 µM
MOLT-4 leukemia
  TGI: 42.5 µM
NCI-H23 lung
  TGI: > 100 µM
NCI-H460 lung
  TGI: > 100 µM
NCI-H522 lung
  TGI: > 100 µM
OVCAR-3 ovarian
  TGI: > 100 µM
OVCAR-4 ovarian
  TGI: > 100 µM
OVCAR-5 ovarian
  TGI: > 100 µM
OVCAR-8 ovarian
  TGI: > 100 µM
RPMI-8226 leukemia
  TGI: > 100 µM
RXF 393 renal
  TGI: > 100 µM
SF-268 CNS
  TGI: > 100 µM
SF-295 CNS
  TGI: > 100 µM
SF-539 CNS
  TGI: > 100 µM
SK-MEL-2 melanoma
  TGI: > 100 µM
SK-MEL-28 melanoma
  TGI: > 100 µM
SK-MEL-5 melanoma
  TGI: 29.4 µM
SK-OV-3 ovarian
  TGI: > 100 µM
SN12C renal
  TGI: > 100 µM
SNB-19 CNS
  TGI: > 100 µM
SNB-75 CNS
  TGI: > 100 µM
SNB-78 CNS
  TGI: > 100 µM
SR leukemia
  TGI: > 100 µM
SW-620 colon
  TGI: > 100 µM
TK-10 renal
  TGI: > 100 µM
U251 CNS
  TGI: > 100 µM
UACC-257 melanoma
  TGI: > 100 µM
UACC-62 melanoma
  TGI: > 100 µM
UO-31 renal
  TGI: > 100 µM
XF 498 CNS
  TGI: 33.4 µM

## Cn1cc(C(=O)C2CCCCC2)ccc1=O
786-0 renal
  TGI: > 100 µM
A549 NSCLC
  TGI: > 100 µM
ACHN renal
  TGI: > 100 µM
CAKI-1 renal
  TGI: > 100 µM
CCRF-CEM leukemia
  TGI: > 100 µM
COLO 205 colon
  TGI: > 100 µM
DLD-1 colon
  TGI: > 100 µM
DMS 114 small cell lung
  TGI: > 100 µM
DMS 273 small cell lung
  TGI: > 100 µM
EKVX NSCLC
  TGI: > 100 µM
HCC-2998 colon
  TGI: > 100 µM
HCT-116 colon
  TGI: > 100 µM
HCT-15 colon
  TGI: > 100 µM
HL-60(TB) leukemia
  TGI: > 100 µM
HOP-62 NSCLC
  TGI: > 100 µM
HOP-92 NSCLC
  TGI: > 100 µM
HT29 colon
  TGI: > 100 µM
IGROV1 ovarian
  TGI: > 100 µM
K-562 leukemia
  TGI: > 100 µM
KM12 colon
  TGI: > 100 µM
KM20L2 colon
  TGI: > 100 µM
LOX IMVI melanoma
  TGI: > 100 µM
M14 melanoma
  TGI: > 100 µM
MALME-3M melanoma
  TGI: > 100 µM
MOLT-4 leukemia
  TGI: > 100 µM
NCI-H226 lung
  TGI: > 100 µM
NCI-H23 lung
  TGI: > 100 µM
NCI-H460 lung
  TGI: > 100 µM
NCI-H522 lung
  TGI: > 100 µM
OVCAR-3 ovarian
  TGI: > 100 µM
OVCAR-4 ovarian
  TGI: > 100 µM
OVCAR-5 ovarian
  TGI: > 100 µM
OVCAR-8 ovarian
  TGI: > 100 µM
RPMI-8226 leukemia
  TGI: > 100 µM
RXF 393 renal
  TGI: > 100 µM
RXF-631 renal
  TGI: > 100 µM
SF-268 CNS
  TGI: > 100 µM
SF-295 CNS
  TGI: > 100 µM
SF-539 CNS
  TGI: > 100 µM
SK-MEL-2 melanoma
  TGI: > 100 µM
SK-MEL-28 melanoma
  TGI: > 100 µM
SK-MEL-5 melanoma
  TGI: > 100 µM
SK-OV-3 ovarian
  TGI: > 100 µM
SN12C renal
  TGI: > 100 µM
SNB-19 CNS
  TGI: > 100 µM
SNB-75 CNS
  TGI: > 100 µM
SNB-78 CNS
  TGI: > 100 µM
SR leukemia
  TGI: > 100 µM
SW-620 colon
  TGI: > 100 µM
TK-10 renal
  TGI: > 100 µM
U251 CNS
  TGI: > 100 µM
UACC-62 melanoma
  TGI: > 100 µM
UO-31 renal
  TGI: > 100 µM
XF 498 CNS
  TGI: > 100 µM
